Tests used:
Format in all cases: cell-based, human
[1] = test system: HeLa cell line that continuously produces the Otx2 homeoprotein; test: Dot blot analysis of Otx2 protein secreted into cell culture solution; conditions: FIG. 2C
Protocol: In order to detect a homeoprotein secreted to the outside of the cell, a cell culture solution including sodium heparin was allowed to pass through a polyvinylidene difluoride (PVDF) membrane. Next, the membrane was treated with a blocking solution (TBST including 5% skim milk) and allowed to react at room temperature for 1 hour. Subsequently, the membrane was treated with a blocking solution including a primary antibody, allowed to react at 4° C. for 16 hours, then treated with a horseradish peroxidase (HRP)-conjugated secondary antibody, and cultured at room temperature for 1 hour, and then the membrane was exposed to an X-ray photosensitive film by inducing an enzymatic reaction using an ECL solution as a substrate to thereby analyze the results.
(§1) Accordingly, the present inventors treated a HeLa cell line that continuously produces the Otx2 homeoprotein manufactured in Example 2 with a V-ATPase inhibitor and a lysosomal pH enhancer as inhibitors of lysosomal function, and confirmed a change in secretion of the homeoprotein. The V-ATPase inhibitor is a lysosomal ion channel inhibitor, and when cells are treated with the inhibitor, the pH in the lysosome is increased, so the protein degradation by the lysosome may be suppressed because the activity of the hydrolase present in the lysosome is inhibited.
(§2) Furthermore, the level of secreted Otx2 protein and the intracellular expression level of Otx2 protein when the HeLa cells were treated with the inhibitor of lysosomal function were analyzed by a dot blot analysis and a western blot analysis.
(§3) In addition, the present inventors treated the HeLa cells with bafilomycin D (BafD) together with bafilomycin A1 (BafA1) and concanamycin A (ConA), which are types of V-ATPase inhibitors, at different concentrations, and performed an analysis in the same manner as in FIG. 2B.

[2] = test system: HeLa cell line that continuously produces the Otx2 homeoprotein; test: Immunocytochemical staining of intracellular Otx2 protein after treatment with inhibitor of lysosomal function; conditions: HeLa cells, treated 16 hours, FIG. 2A, vehicle: almost exclusively in cell nucleus
Protocol: Cells were cultured on a cover glass in a cell incubator for 24 hours or more, and treated with a fixing solution (physiological saline including 4% paraformaldehyde) at room temperature for 20 minutes to fix the cells. Next, after the cells were treated with a permeability-imparting solution (physiological saline including 0.1% TWEEN-20 (polysorbate 20)) at room temperature for 10 minutes, the cells were treated with a blocking solution (physiological saline including 10% donkey serum) at room temperature for 1 hour. Subsequently, the cells were treated with a blocking solution including a primary antibody, cultured at 4° C. for 16 hours, then treated with a blocking solution 10 including a fluorophore-conjugated secondary antibody, and cultured at room temperature for 1 hour. Then, the fluorescence signals of the cells were analyzed under an Olympus FV1000 confocal microscope.
as §1
Thus, specifically, after the HeLa cells were treated with each of V-ATPase inhibitors bafilomycin A1 (BafA1) and concanamycin A (ConA), and a lysosomal pH enhancer chloroquine (CQ) at different concentrations for 16 hours, the intracellular expression of the Otx2 protein was observed by immunocytochemical staining.

[3] = test system: HeLa cell line that continuously produces the Otx2 homeoprotein; test: Western blot analysis of Otx2 protein in cell lysate; conditions: for expression level of the Otx2 protein in cell lysate: HeLa cells, western blot V5 (Otx2), FIG. 2B; for intracellular expression of the Otx2 protein: FIG. 2C
Protocol: In order to detect a homeoprotein present inside the cell, cells were lysed with a RIPA lysate (tertiary distilled water including 20 mM Tris-HCl, pH 7.5, 150 mM NaCl, 1 mM Na2EDTA, 1 mM EGTA, 1% NP-40, 1% sodium deoxycholate, 2.5 mM sodium pyrophosphate, 1 mM β-glycerophosphate, 1 mM Na3VO4, and 1 μg/ml leupeptin), and then proteins in the cells were separated according to molecular weight by performing electrophoresis (SDS-PAGE) on the cell lysate on a polyacrylamide gel including sodium dodecyl sulfate. The gel was induced to electrically bind to a PVDF membrane after protein separation to transfer the proteins to the membrane.
The V-ATPase inhibitor is a lysosomal ion channel inhibitor, and when cells are treated with the inhibitor, the pH in the lysosome is increased, so the protein degradation by the lysosome may be suppressed because the activity of the hydrolase present in the lysosome is inhibited.
as §2, §3

[4] = concentration increased from 20 nM to 200 nM
[5] = concentration increased from 5 nM to 50 nM

CO/C1=C\C(C)=C\[C@@H](C)[C@@H](O)[C@@H](C)C/C(C)=C/C=C/[C@H](OC)[C@@H]([C@@H](C)[C@@H](O)[C@H](C)[C@@]2(O)C[C@@H](O)[C@H](C)[C@@H](C(C)C)O2)OC1=O [BafA1, bafilomycin A1]
secretion of the Otx2 protein to the outside of the cell [1, 4]: increased | expression pattern (intracellular position) of Otx2 protein [2]: occurred even in the cytoplasm including the cell nucleus | expression level of the Otx2 protein in cell lysate [3]: a big difference did not appear | intracellular expression of the Otx2 protein [3, 4]: increased

CCN(CC)CCCC(C)Nc1ccnc2cc(Cl)ccc12 (stereo not drawn) [CQ, chloroquine]
expression pattern (intracellular position) of Otx2 protein [2]: occurred even in the cytoplasm including the cell nucleus | expression level of the Otx2 protein in cell lysate [3]: expressed at a higher level

C/C=C/[C@H]1O[C@@](O)([C@@H](C)[C@H](O)[C@H](C)[C@H]2OC(=O)/C(OC)=C/C(C)=C/[C@@H](C)[C@@H](O)[C@@H](CC)[C@@H](O)[C@H](C)C/C(C)=C/C=C/[C@@H]2OC)C[C@@H](O[C@H]2C[C@@H](O)[C@H](OC(N)=O)[C@@H](C)O2)[C@@H]1C [ConA, concanamycin A]
secretion of the Otx2 protein to the outside of the cell [1, 5]: increased | expression pattern (intracellular position) of Otx2 protein [2]: occurred even in the cytoplasm including the cell nucleus | expression level of the Otx2 protein in cell lysate [3]: expressed at a higher level | intracellular expression of the Otx2 protein [3, 5]: increased

bafilomycin D [BafD]
secretion of the Otx2 protein to the outside of the cell [1, 4]: increased | intracellular expression of the Otx2 protein [3, 4]: increased
